The source of these data is ChEMBL document CHEMBL1221187, “Histone deacetylase inhibitors reverse gene silencing in Friedreich's ataxia” (Nat Chem Biol, 2006).

As usually defined, the IC50 is the midpoint of a concentration-inhibition curve. As usually defined, the inhibition is the drop in the measured response relative to a control, in per cent.

The structures appear in SMILES notation. Activity calls are given as the source filed them. The calls are words filed in the database; no cut-off is given here.

In data set [1] the test system is Lymphocyte. Description: Increase in FXN mRNA expression in lymphocytes isolated from patient with Friedreich's ataxia at 10 uM after 48 hrs by qRT-PCR analysis. It is filed as functional, cell-based. As to conditions: Homo sapiens. (In qPCR the cycle at which signal appears reflects the starting amount.)
Data set [2] can be described thus: Cytotoxicity against human GM15850 cells at 5 uM after 96 hrs by trypan blue exclusion assay. It is filed as cell-based. As to conditions: gm15850, 96 h.
For data set [3], the target named is Histone deacetylase. Description: Inhibition of HDAC in human HeLa cell extract by fluorescence plate reader assay. Type of data set: cell-free.
The subject of data set [4] is GM15850. Description: Increase in FXN mRNA expression in human GM15850 cells at 5 uM after 96 hrs by qRT-PCR analysis relative to control. It is filed as functional.
Data set [5] in a line: Decrease in FXN mRNA expression in human GM15850 cells at 5 uM after 12 hrs by qRT-PCR analysis. Type of data set: functional, cell-based.
Data set [6] deals with T1, Histone deacetylase (Homo sapiens) (UniProt Q13547+O15379+Q9UBN7+Q92769+Q9UQL6+Q8WUI4+Q9BY41+Q96DB2+P56524+Q9UKV0+Q969S8). In words: Inhibition of HDAC in human GM15850 cells assessed as increase in total acetylated histone level at 400 uM after 12 hrs by Western blot analysis. It is filed as cell-based. (In general: In western blotting, separated proteins are transferred to a membrane and probed.)

Data set [7] concerns GM15850. In words: Increase in frataxin protein level in human GM15850 cells at 5 uM after 4 days by SDS-PAGE relative to control. Type of data set: functional.
Data set [8] concerns Lymphocyte. In words: Increase in FXN mRNA expression in lymphocytes isolated from patient with Friedreich's ataxia at 2.5 uM after 48 hrs by qRT-PCR analysis. Type of data set: functional, Homo sapiens.
For data set [9], the system named is Lymphocyte. In words: Effect on FXN mRNA expression in healthy human lymphocytes at 2.5 uM after 48 hrs by qRT-PCR analysis. Type of data set: functional, cell-based.
Data set [10] is described as follows: Cytotoxicity against human GM15850 cells at 5 uM after 12 hrs by trypan blue exclusion assay. It is filed as cell-based. As to conditions: gm15850, 12 h.
For data set [11], the system named is Lymphocyte. Description: Increase in FXN mRNA expression in healthy human lymphocytes at 5 uM after 48 hrs by qRT-PCR analysis. Type of data set: functional.
Data set [12] relates to GM15850. In words: Increase in FXN mRNA expression in human GM15850 cells at 5 uM after 12 hrs by qRT-PCR analysis relative to control. It is filed as functional.
In data set [13] the test system is Lymphocyte. In words: Increase in FXN mRNA expression in lymphocytes isolated from patient with Friedreich's ataxia at 5 uM after 48 hrs by qRT-PCR analysis. Type of data set: functional, Homo sapiens.
The nature of data set [14]: Cytotoxicity against lymphocytes isolated from patient with Friedreich's ataxia at 2.5 to 5 uM after 48 hrs by trypan blue exclusion assay. To be noted: human, lymphocyte. Type of data set: cell-based.
Data set [15] concerns Lymphocyte. Description: Increase in FXN mRNA expression in lymphocytes isolated from patient with Friedreich's ataxia at 5 uM after 48 hrs by qRT-PCR analysis relative to control. Type of data set: functional, Homo sapiens.
Data set [16] addresses T1, Histone deacetylase (Homo sapiens). Description: Inhibition of HDAC in human GM15850 cells assessed as increase in histone H4 lysine 16 acetylation of FXN gene at 5 uM after 96 hrs by chromatin immunoprecipitation assay. It is filed as cell-based.
Data set [17] shares this target. In words: Inhibition of HDAC in human GM15850 cells assessed as increase in histone H4 lysine 8 acetylation of FXN gene at 5 uM after 96 hrs by chromatin immunoprecipitation assay. It is filed as cell-based.
The subject of data set [18] is Lymphocyte. Description: Increase in FXN mRNA expression in lymphocytes isolated from patient with Friedreich's ataxia at 10 uM after 48 hrs by qRT-PCR analysis relative to mRNA level in healthy human lymphocytes. Type of data set: functional.
Data set [19] relates to GM15850. In words: Increase in frataxin protein level in human GM15850 cells at 2.5 uM after 4 days by SDS-PAGE relative to control. It is filed as functional.
Data set [20] has as its target T1, Histone deacetylase (Homo sapiens). In words: Inhibition of HDAC in human GM15850 cells assessed as increase in histone H3 lysine 9 acetylation of FXN gene at 5 uM after 96 hrs by chromatin immunoprecipitation assay. It is filed as cell-based.
The target is the same in data set [21]. Description: Inhibition of HDAC in human GM15850 cells assessed as increase in histone H4 lysine 5 acetylation of FXN gene at 5 uM after 96 hrs by chromatin immunoprecipitation assay. It is filed as cell-based.
Data set [22] has the same target. Description: Inhibition of HDAC in human GM15850 cells assessed as increase in histone H4 lysine 12 acetylation of FXN gene at 5 uM after 96 hrs by chromatin immunoprecipitation assay. It is filed as cell-based.
Data set [23] relates to Lymphocyte. Description: Increase in FXN mRNA expression in lymphocytes isolated from patient with Friedreich's ataxia at 5 uM after 48 hrs by qRT-PCR analysis relative to mRNA level in healthy human lymphocytes. It is filed as functional.
The target of data set [24] is T1, Histone deacetylase (Homo sapiens). In words: Inhibition of HDAC in human GM15850 cells assessed as increase in histone H3 lysine 14 acetylation of FXN gene at 5 uM after 96 hrs by chromatin immunoprecipitation assay. It is filed as cell-based.
The test system of data set [25] is Lymphocyte. In words: Increase in FXN mRNA expression in lymphocytes isolated from patient with Friedreich's ataxia at 2.5 to 7.5 uM after 48 hrs by qRT-PCR analysis. Type of data set: functional, cell-based. To be noted: Homo sapiens.
Data set [26] relates to GM15850. In words: Increase in FXN mRNA expression in human GM15850 cells at 10 uM after 96 hrs by qRT-PCR analysis relative to control. Type of data set: functional.
Data set [27] deals with GM15850. Description: Effect on FXN mRNA expression in human GM15850 cells at 5 uM after 12 hrs by qRT-PCR analysis. It is filed as functional, cell-based.

`Nc1ccc(NC(=O)CCCCCC(=O)Nc2ccccc2)cc1`: the outcome in [1] was inactive. Also, in [2], the Activity entry is reported as “Non-toxic”. Further, in [3], the IC50 is 123 µM. The “fold change (FC)” value in data set [4] was 2.6.

For `Nc1cccc(NC(=O)CCCCCC(=O)Nc2ccccc2)c1`, the Activity entry in [2] is “Non-toxic”. This compound also had an IC50 in [3] of 500 µM. In data set [4], the “fold change (FC)” value was 1.5.

With `O=C(CCCCCC(=O)Nc1cccc2cccnc12)Nc1ccccc1`, the Activity result in data set [2] was “Non-toxic”. Moreover, the IC50 in data set [3] came to 17 µM. For the same compound, the “fold change (FC)” value in data set [4] amounted to 3.

On to `O=C(CCCCCCC(=O)Nc1ccccn1)Nc1ccccc1`, for which, in [1], the outcome was inactive. Also, in [2], the Activity result is reported as “Non-toxic”. The same compound displayed an IC50 in data set [3] of 99 µM. In addition, in data set [4], the “fold change (FC)” value came to 2.

Regarding `COc1ccc(NC(=O)CCCCCC(=O)Nc2ccccc2)cc1`, the Activity entry in data set [2] is given as “Non-toxic”. This compound gave an IC50 in [3] of 438 µM. The “fold change (FC)” value in [4] is given as 2.5.

Regarding `CC(/C=C/C(=O)NO)=C\[C@@H](C)C(=O)c1ccc(N(C)C)cc1` [TRICHOSTATIN], the Activity result in data set [2] is given as “Toxic”.

As for `O=C(CCCCCC(=O)Nc1cnc2ccccc2c1)Nc1ccccc1`, the Activity entry in data set [2] is “Non-toxic”. Besides, the IC50 in data set [3] was determined as 84 µM. The “fold change (FC)” value in data set [4] was found to be 2.5.

For the compound `Nc1ccc(NC(=O)CCCCCCC(=O)Nc2ccccc2)cc1`, in data set [2], the Activity result is reported as “Non-toxic”. This compound showed an IC50 in data set [3] of 186 µM. Besides, in data set [4], the “fold change (FC)” value was 2.

In the case of `O=C(CCCCCCC(=O)NO)NO` [SUBEROHYDROXAMIC ACID], the Activity entry in [2] was “Non-toxic”. The same compound showed an inhibition in [5] of 50%.

Consider `O=C(CCCCCC(=O)Nc1ccccc1)Nc1ccccc1`, for which the Activity entry in data set [2] is on record as “Non-toxic”.

Regarding `Nc1ccccc1NC(=O)CCCCCC(=O)Nc1ccccn1`, the result in data set [1] was Active. Further, the Activity entry in [2] was “Non-toxic”. Besides, in data set [3], the IC50 was 91 µM. Further, in data set [4], the “fold change (FC)” value worked out at 2.4.

`CCCC(CCC)C(=O)O` [VALPROIC ACID]: the Activity result in data set [2] was “Non-toxic”. In data set [6], the inhibition result is “Active”.

Regarding `O=C(CCCCCC(=O)Nc1ccccn1)Nc1ccccc1`, in data set [2], the Activity entry is recorded as “Non-toxic”. Also, in data set [3], the IC50 was found to be 140 µM. Besides, the “fold change (FC)” value in data set [4] amounted to 2.6.

In the case of `COc1ccccc1NC(=O)CCCCCCC(=O)Nc1ccccc1`, the Activity result in data set [2] was “Non-toxic”. This compound had an IC50 in data set [3] of 470 µM. The “fold change (FC)” value in data set [4] amounted to 1.8.

In the case of `Nc1ccccc1NC(=O)CCCCCCC(=O)Nc1ccccc1`, the “fold change (FC)” value in [7] came to 3; in data set [4] it was 1.4; in data set [12] it was 2; in data set [15], 1.8. For the same compound, the Activity was 33% in data set [8]; “Non-toxic” in data set [2]; “Non-toxic” in data set [10]; 80% in data set [13]; “Non-toxic” in data set [14]. Moreover, the outcome in data set [9] and in [11] was inactive. For the same compound, the IC50 in data set [3] was 87 µM.

On to `Nc1ccccc1NC(=O)CCCCCC(=O)Nc1ccccc1`, for which the outcome in data set [16], in [17], in [9] and in [20] was inactive. The Activity in [18] is 160%; in [8] it was 33%; in data set [2], “Non-toxic”; in data set [23], 80%; in data set [11] it was 38%; in data set [13], 130%. Moreover, the Activity result in data set [14] is “Non-toxic”. Also, the “fold change (FC)” value is 3 in data set [19], 2.5 in [4] and 2.3 in data set [15]. For the same compound, the outcome in data set [21], in [22], in data set [24] and in [25] was Active. Besides, the IC50 in data set [3] was 78 µM.

With `Nc1cccc(NC(=O)CCCCCCC(=O)Nc2ccccc2)c1`, in [2], the Activity entry is “Non-toxic”. This compound displayed an IC50 in [3] of 85 µM. For the same compound, in data set [4], the “fold change (FC)” value was found to be 2.1.

In the case of `COc1cccc(NC(=O)CCCCCC(=O)Nc2ccccc2)c1`, the Activity entry in data set [2] is on record as “Non-toxic”. In addition, the IC50 in data set [3] is above 1 µM. In addition, the “fold change (FC)” value in data set [4] was 1.8.

On to `COc1ccc(NC(=O)CCCCCC(=O)Nc2ccccc2)c(OC)c1`, for which, in data set [2], the Activity result is “Non-toxic”. In [3], this compound gave an IC50 of 387 µM. For the same compound, the “fold change (FC)” value in [4] came to 1.5.

`Nc1ccccc1NC(=O)CCCCC(=O)Nc1ccccc1`: the Activity entry in [2] is given as “Non-toxic”. In data set [3], this compound displayed an IC50 of 238 µM. In addition, the “fold change (FC)” value in data set [4] stood at 1.4.

With `Nc1ccccc1NC(=O)CCCCCC(=O)Nc1ccccc1N`, in [1], the outcome was Active. The Activity entry in [2] is “Non-toxic”. Further, the “fold change (FC)” value in [26] is listed as 3.5; in data set [4], 3.1. The compound further came in with an IC50 in data set [3] of 14 µM.

On to `O=C(CCCCCCC(=O)Nc1ccccc1)NO` [VORINOSTAT], for which the Activity entry in data set [2] is “Toxic”. Further, the result in data set [27] was inactive.

With `COc1ccccc1NC(=O)CCCCCC(=O)Nc1ccccc1`, the Activity entry in data set [2] is “Non-toxic”. For the same compound, in data set [3], the IC50 came out at 54 µM. In data set [4], the “fold change (FC)” value stood at 2.3.
